For test [1], the target named is T1, recombinant human FLAP protein (Homo sapiens, UniProt P20292).
T1 construct: made in house; host or cells: Sf9 insect cells (100,000×g membrane pellet used)
T1 sequence (P20292 1-161): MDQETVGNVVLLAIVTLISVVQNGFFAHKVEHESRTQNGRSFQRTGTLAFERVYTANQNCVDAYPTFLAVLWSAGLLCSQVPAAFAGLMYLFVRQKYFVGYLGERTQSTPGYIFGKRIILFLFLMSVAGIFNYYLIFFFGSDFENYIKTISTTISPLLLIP
The test is described as follows: FLAP binding assay (SPA, displacement of [125I]L-691,831). As to conditions: membranes of sf9 cells expressing recombinant human FLAP; [125I]L-691,831 probe; read-out: FLAP binding IC50. A digest of the protocol: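 Membranes from sf9 cells expressing human FLAP in pH 7.5 Tris buffer (MgCl2, EDTA, PMSF). Non-specific binding defined with 10 μM cold L-691,831.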

Test [2] concerns synthesis of LTB4 in human whole blood. The test is described as follows: Human whole blood assay (inhibition of LTB4 synthesis, calcimycin stimulated). Format: cell-based. As to conditions: heparinized human whole blood, calcimycin 20 μM, plasma LTB4. In short, it runs like this:
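Whole-blood cellular format, heparinized human donors: 15 min compound pretreatment, then 30 min calcimycin stimulation (20 μM final), both at 37° C. Low-speed centrifugation yields plasma, in which LTB4 is read by homogeneous time-resolved fluorescence immunoassay.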

We go through 24 molecules from US8658661B2, “Oxadiazole inhibitors of leukotriene production” (Boehringer Ingelheim International GmbH, priority 2010, dated 2014).

As for `CC(C)C(C)(c1ccc(-c2cnc(N)nc2)cc1)c1noc(N2C3CCC2CC(O)C3)n1` (stereo not drawn) [Example 235, 8-(3-{1-[4-(2-Amino-pyrimidin-5-yl)-phenyl]-1,2-dimethyl-propyl}-[1,2,4]oxadiazol-5-yl)-8-aza-bicyclo[3.2.1]octan-3-ol], the IC50 – broadly, the concentration that inhibits the measured activity by half – is 0.029 µM in test [1] and 0.78 µM in test [2].
In the case of `CC(C)C(C)(c1ccc(-c2cnc(N)nc2)cc1)c1noc(NC2CCN(C)CC2)n1` (stereo not drawn) [Example 236, 5-(4-{1,2-Dimethyl-1-[5-(1-methyl-piperidin-4-ylamino)-[1,2,4]oxadiazol-3-yl]-propyl}-phenyl)-pyrimidin-2-ylamine], the IC50 in test [1] is 0.089 µM; in test [2] it was 1.3 µM.
Take `CC(C)C(C)(c1ccc(-c2cnc(N)nc2)cc1)c1noc(NC2CCC(O)CC2)n1` (stereo not drawn) [Example 237, 4-(3-{1-[4-(2-Amino-pyrimidin-5-yl)-phenyl]-1,2-dimethyl-propyl}-[1,2,4]oxadiazol-5-ylamino)-cyclohexanol]: the IC50 in test [1] was 0.026 µM; in test [2], 0.47 µM.
For `CC1(O)CCN(c2nc(C(C)(c3ccc(-c4cnc(N)nc4)cc3)C3CC3)no2)CC1` (stereo not drawn) [Example 238, 1-(3-{1-[4-(2-Amino-pyrimidin-5-yl)-phenyl]-1-cyclopropyl-ethyl}-[1,2,4]oxadiazol-5-yl)-4-methyl-piperidin-4-ol], in that order: 0.005 µM and 0.029 µM.
`CN(C)C(=O)Cn1cc(-c2nc(C(C)(c3ccc(-c4cnc5c(c4)OCCN5)cc3)C3CC3)no2)cn1` (stereo not drawn) [Example 239, 2-[4-(3-{1-Cyclopropyl-1-[4-(3,4-dihydro-2H-pyrido[3,2-b][1,4]oxazin-7-yl)-phenyl]-ethyl}-[1,2,4]oxadiazol-5-yl)-pyrazol-1-yl]-N,N-dimethyl-acetamide]: the IC50 in test [1] stood at 0.0041 µM; in test [2], 0.29 µM.
For `Cc1nc(N)ncc1-c1ccc(C(C)(c2noc(-c3cnn(CC(=O)N(C)C)c3)n2)C2CC2)cc1` (stereo not drawn) [Example 240, 2-[4-(3-{1-[4-(2-Amino-4-methyl-pyrimidin-5-yl)-phenyl]-1-cyclopropyl-ethyl}-[1,2,4]oxadiazol-5-yl)-pyrazol-1-yl]-N,N-dimethyl-acetamide], the IC50 was 0.015 µM in test [1] and 0.19 µM in test [2].
Turning to `CN(C)C(=O)Cn1cc(-c2nc(C(C)(c3ccc(-c4cnc5c(c4)CCN5)cc3)C3CC3)no2)cn1` (stereo not drawn) [Example 241, 2-[4-(3-{1-Cyclopropyl-1-[4-(2,3-dihydro-1H-pyrrolo[2,3-b]pyridin-5-yl)-phenyl]-ethyl}-[1,2,4]oxadiazol-5-yl)-pyrazol-1-yl]-N,N-dimethyl-acetamide], the results for the IC50 in test [1] and in test [2] were 0.0034 µM and 0.17 µM, respectively.
Turning to `CN(C)C(=O)Cn1cc(-c2nc(C(C)(c3ccc(-c4cnc5[nH]ccc5c4)cc3)C3CC3)no2)cn1` (stereo not drawn) [Example 242, 2-[4-(3-{1-Cyclopropyl-1-[4-(1H-pyrrolo[2,3-b]pyridin-5-yl)-phenyl]-ethyl}-[1,2,4]oxadiazol-5-yl)-pyrazol-1-yl]-N,N-dimethyl-acetamide], the IC50 was found to be 0.0057 µM in test [1] and 0.31 µM in test [2].
`CN(C)C(=O)Cn1cc(-c2nc(C(C)(c3ccc(-c4cnc(N)c(F)c4)cc3)C3CC3)no2)cn1` (stereo not drawn) [Example 243, 2-[4-(3-{1-[4-(6-Amino-5-fluoro-pyridin-3-yl)-phenyl]-1-cyclopropyl-ethyl}-[1 ,2,4]oxadiazol-5-yl)-pyrazol-1-yl]-N,N-dimethyl-acetamide]: the IC50 in test [1] is 0.012 µM; in test [2], 0.17 µM.
In the case of `Cc1nc(N)ccc1-c1ccc(C(C)(c2noc(-c3cnn(CC(=O)N(C)C)c3)n2)C2CC2)cc1` (stereo not drawn) [Example 244, 2-[4-(3-{1-[4-(6-Amino-2-methyl-pyridin-3-yl)-phenyl]-1-cyclopropyl-ethyl}-[1,2,4]oxadiazol-5-yl)-pyrazol-1-yl]-N,N-dimethyl-acetamide], the results for the IC50 in test [1] and in test [2] were 0.025 µM and 0.27 µM, respectively.
On to `Cc1nc(N)cnc1-c1ccc(C(C)(c2noc(-c3cnn(CC(=O)N(C)C)c3)n2)C2CC2)cc1` (stereo not drawn) [Example 245, 2-[4-(3-{1-[4-(5-Amino-3-methyl-pyrazin-2-yl)-phenyl]-1-cyclopropyl-ethyl}-[1,2,4]oxadiazol-5-yl)-pyrazol-1-yl]-N,N-dimethyl-acetamide], for which the IC50 in test [1] was determined as 0.028 µM; in test [2] it was 0.31 µM.
Take `CN(C)C(=O)Cn1cc(-c2nc(C(C)(c3ccc(-c4cnc(N)c(C(F)(F)F)c4)cc3)C3CC3)no2)cn1` (stereo not drawn) [Example 246, 2-[4-(3-{1-[4-(6-Amino-5-trifluoromethyl-pyridin-3-yl)-phenyl]-1-cyclopropyl-ethyl}-[1,2,4]oxadiazol-5-yl)-pyrazol-1-yl]-N,N-dimethyl-acetamide]: the figures for the half-maximal inhibitory concentration (IC50) in test [1] and in test [2] were 0.019 µM and 0.43 µM, respectively.
For `CN(C)C(=O)Cn1cc(-c2nc(C(C)(c3ccc(-c4cnc5[nH]ccc5n4)cc3)C3CC3)no2)cn1` (stereo not drawn) [Example 247, 2-[4-(3-{1-Cyclopropyl-1-[4-(5H-pyrrolo[2,3-b]pyrazin-2-yl)-phenyl]-ethyl}-[1,2,4]oxadiazol-5-yl)-pyrazol-1-yl]-N,N-dimethyl-acetamide], in that order: 0.0059 µM and 0.3 µM.
In the case of `CC(c1ccc(-c2ccc(N)nc2)cc1)(c1noc(N2CCC(O)CC2)n1)C1CC1` (stereo not drawn) [Example 248, 1-(3-{1-[4-(6-Amino-pyridin-3-yl)-phenyl]-1-cyclopropyl-ethyl}-[1,2,4]oxadiazol-5-yl)-piperidin-4-ol], the IC50 in test [1] stood at 0.01 µM; in test [2], 0.08 µM.
As to `CCNc1ncc(-c2ccc(C(C)(c3noc(-c4cnn(CC(=O)N(C)C)c4)n3)C3CC3)cc2)cn1` (stereo not drawn) [Example 249, 2-[4-(3-{1-Cyclopropyl-1-[4-(2-ethylamino-pyrimidin-5-yl)-phenyl]-ethyl}-[1,2,4]oxadiazol-5-yl)-pyrazol-1-yl]-N,N-dimethyl-acetamide], the IC50 was 0.37 µM in test [1] and above 5 µM in test [2].
In the case of `CN(C)C(=O)Cn1cc(-c2nc(C(C)(c3ccc(-c4cnc(NC5CC5)nc4)cc3)C3CC3)no2)cn1` (stereo not drawn) [Example 250, 2-[4-(3-{1-Cyclopropyl-1-[4-(2-cyclopropylamino-pyrimidin-5-yl)-phenyl]-ethyl}[1,2,4]oxadiazol-5-yl)-pyrazol-1-yl]-N,N-dimethyl-acetamide], the IC50 in test [1] is 0.47 µM; in test [2], above 5 µM.
On to `CNc1ccc(-c2ccc(C(C)(c3noc(-c4cnn(CC(=O)N(C)C)c4)n3)C3CC3)cc2)cn1` (stereo not drawn) [Example 251, 2-[4-(3-{1-Cyclopropyl-1-[4-(6-methylamino-pyridin-3-yl)-phenyl]-ethyl}-[1,2,4]oxadiazol-5-yl)-pyrazol-1-yl]-N,N-dimethyl-acetamide], for which the IC50 stood at 0.0091 µM in test [1] and 0.13 µM in test [2].
With `CC(c1ccc(-c2cnc(N)nc2)cc1)(c1noc(N2CCN(CCO)CC2)n1)C1CC1` (stereo not drawn) [Example 252, 2-[4-(3-{1-[4-(2-Amino-pyrimidin-5-yl)-phenyl]-1-cyclopropyl-ethyl}-[1,2,4]oxadiazol-5-yl)-piperazin-1-yl]-ethanol], the half-maximal inhibitory concentration (IC50) in test [1] was found to be 0.015 µM; in test [2], 0.22 µM.
Consider `Cn1cc(-c2nc(C(C)(c3ccc(-c4cnc5[nH]ccc5c4)cc3)C3CC3)no2)cn1` (stereo not drawn) [Example 253, 5-(4-{1-Cyclopropyl-1-[5-(1-methyl-1H-pyrazol-4-yl)-[1,2,4]oxadiazol-3-yl]-ethyl}-phenyl)-1H-pyrrolo[2,3-b]pyridine], for which the IC50 turned out to be 0.0038 µM in test [1] and 0.12 µM in test [2].
The like results for `CN(C)C(=O)Cn1cc(-c2nc([C@@](C)(c3ccc(-c4cnc5c(c4)OCCN5)cc3)C3CC3)no2)cn1` [Example 254, 2-[4-(3-{(R)-1-Cyclopropyl-1-[4-(3,4-dihydro-2H-pyrido[3,2-b][1,4]oxazin-7-yl)-phenyl]-ethyl}-[1,2,4]oxadiazol-5-yl)-pyrazol-1-yl]-N,N-dimethyl-acetamide] were, in that order, 0.0028 µM and 0.21 µM.
In the case of `CN(C)C(=O)Cn1cc(-c2nc([C@](C)(c3ccc(-c4cnc5c(c4)OCCN5)cc3)C3CC3)no2)cn1` [Example 255, 2-[4-(3-{(S)-1-Cyclopropyl-1-[4-(3,4-dihydro-2H-pyrido[3,2-b][1,4]oxazin-7-yl)-phenyl]-ethyl}-[1,2,4]oxadiazol-5-yl)-pyrazol-1-yl]-N,N-dimethyl-acetamide], the IC50 in test [1] turned out to be 0.015 µM; in test [2] it was 1.8 µM.
On to `Cn1cc(-c2nc(C(C)(c3ccc(-c4cnc5c(c4)CCN5)cc3)C3CC3)no2)cn1` (stereo not drawn) [Example 256, 5-(4-{1-Cyclopropyl-1-[5-(1-methyl-1H-pyrazol-4-yl)-[1,2,4]oxadiazol-3-yl]-ethyl}-phenyl)-2,3-dihydro-1H-pyrrolo[2,3-b]pyridine], for which the IC50 in test [1] is 0.0045 µM; in test [2] it was 0.051 µM.
Regarding `Cc1nc(N)ncc1-c1ccc([C@](C)(c2noc(-c3cnn(CC(=O)N(C)C)c3)n2)C2CC2)cc1` [Example 257, 2-[4-(3-{(R)-1-[4-(2-Amino-4-methyl-pyrimidin-5-yl)-phenyl]-1-cyclopropyl-ethyl}-[1,2,4]oxadiazol-5-yl)-pyrazol-1-yl]-N,N-dimethyl-acetamide], the 50% inhibitory concentration (IC50) in test [1] was 0.0073 µM; in test [2], 0.15 µM.
Consider `Cc1nc(N)ncc1-c1ccc([C@@](C)(c2noc(-c3cnn(CC(=O)N(C)C)c3)n2)C2CC2)cc1` [Example 258, 2-[4-(3-{(S)-1-[4-(2-Amino-4-methyl-pyrimidin-5-yl)-phenyl]-1-cyclopropyl-ethyl}-[1,2,4]oxadiazol-5-yl)-pyrazol-1-yl]-N,N-dimethyl-acetamide], for which the IC50 amounted to 0.43 µM in test [1] and 2.3 µM in test [2].
